Patent US20080293815A1, “HCA FOR IMPROVED HDL SERUM LIPIDS PROFILE” (Glykon Technologies Group, LLC, priority 2006, published 2008)
“And” between values parts separate entries of the source, which are not always exact repeats. Equal entries are not always repeated.

What was measured:
[1] = system: male rats of Wistar strain; assay: Animal trial: serum total cholesterol, HDL and LDL in rats on cholesterol diet; format: in vivo, rat; details: for total cholesterol reduction (lowering) in comparison to the starting condition: 2 weeks; for HDL, Average / LDL, Average / Total cholesterol, Average: group average; for HDL / LDL / Total cholesterol: individual rat
Description: (§1) During the adaptation period, health was monitored by weighing and observing the animals. […] After 10 days of cholesterol-containing feed, all animals were in a state of hypercholesterolemia. One group served as the control, whereas group II, III, and IV received 0.5%, 1%, and 2% of KHCA (produced via the method of Example 2), respectively, in addition to the cholesterol diet. The salt solutions were given orally in 2 ml water daily. Group I received 2 ml of distilled water per 200 g body weight; group II received 1.03 mg KHCA in 2 ml water per 200 body weight; group III 2.06 mg; and group IV 4.12 mg. These treatments were continued for 2 weeks.
The animals were fasted for 12 hours prior to blood withdrawal. Rats were weighed and the 3-4 ml blood was obtained by amputating 2-3 cm of the tail. The blood was collected, let stand at room temperature for 30 minutes, and then centrifuged for 10-15 minutes. The serum was separated and refrigerated at 4° C. until ready for cholesterol analysis. Cholesterol level of the serum was analyzed using diagnostic kit (Boehringer Mannheim). Total cholesterol, LDL, and HDL were determined through spectrophotometric instrument (Hitachi). These are protocols frequently used in clinical laboratories.
Student's T-test was used to evaluate whether there was a difference between the control and each of the treated groups by comparing the data before and after the treatment. One-way variance analysis was performed to see if there was a statistically significant difference among the groups.

rats = details: physiologic doses; cited from earlier work
[2] = Animal trial: body weight, feed and water consumption, feces; format: in vivo, rat; details: for Body weight: group average
Description: as §1

[3] = animal model, U.S. Pat. No. 6,221,901; cited from earlier work
[4] = 0.5% KHCA (1.03 mg/day oral, 2 weeks), End Day 24
[5] = 0.5% KHCA group, Hypercholesterolemia Day 10 (before treatment)
[6] = 0.5% KHCA group, Start (before diet and treatment)
[7] = 1.0% KHCA (2.06 mg/day oral, 2 weeks), End Day 24
[8] = 1.0% KHCA group, Hypercholesterolemia Day 10 (before treatment)
[9] = 1.0% KHCA group, Start (before diet and treatment)
[10] = 2.0% KHCA (4.12 mg/day oral, 2 weeks), End Day 24
[11] = 2.0% KHCA group, Hypercholesterolemia Day 10 (before treatment)
[12] = 2.0% KHCA group, Start (before diet and treatment)
[13] = 2 ml of 2 percent daily for two weeks
[14] = 2 ml of 2 percent daily, value before the two weeks treatment
[15] = KHCA 0.5% group, Hyper-cholesterolemia (Day 10), before treatment
[16] = KHCA 0.5% group, Start (before diet and treatment)
[17] = KHCA 0.5%, 2 weeks oral, End (Day 24)
[18] = KHCA 1.0% group, Hyper-cholesterolemia (Day 10), before treatment
[19] = KHCA 1.0% group, Start (before diet and treatment)
[20] = KHCA 1.0%, 2 weeks oral, End (Day 24)
[21] = KHCA 2.0% group, Hyper-cholesterolemia (Day 10), before treatment
[22] = KHCA 2.0% group, Start (before diet and treatment)
[23] = KHCA 2.0%, 2 weeks oral, End (Day 24)
[24] = KHCA administration versus control group

## O=C([O-])CC(O)(C(=O)[O-])C(O)C(=O)[O-].[K+].[K+].[K+] (centres unmarked) [KHCA, Potassium HCA Salt]
[1]; 0.5% K-HCA
  total cholesterol reduction (lowering) in comparison to the starting condition: 1.6 mg·dL
[1]; [4]
  HDL, Average: 49.2 mg/dL
  LDL, Average: 64.6 mg/dL
  Total cholesterol, Average: 79.2 mg/dL
  HDL: 40 mg/dL and 59 mg/dL and 43 mg/dL and 53 mg/dL and 51 mg/dL
  LDL: 59 mg/dL and 77 mg/dL and 71 mg/dL and 60 mg/dL and 56 mg/dL
  Total cholesterol: 82 mg/dL and 80 mg/dL and 76 mg/dL and 79 mg/dL (2×)
[1]; [5]
  HDL, Average: 31 mg/dL
  LDL, Average: 63.2 mg/dL
  Total cholesterol, Average: 81 mg/dL
  HDL: 27 mg/dL and 28 mg/dL and 39 mg/dL and 31 mg/dL and 30 mg/dL
  LDL: 60 mg/dL (2×) and 70 mg/dL and 67 mg/dL and 59 mg/dL
  Total cholesterol: 83 mg/dL and 84 mg/dL and 76 mg/dL and 80 mg/dL and 82 mg/dL
[1]; [6]
  HDL, Average: 39 mg/dL
  LDL, Average: 28.8 mg/dL
  Total cholesterol, Average: 72.6 mg/dL
  HDL: 37 mg/dL and 40 mg/dL and 41 mg/dL and 39 mg/dL and 38 mg/dL
  LDL: 31 mg/dL and 28 mg/dL and 33 mg/dL and 27 mg/dL and 25 mg/dL
  Total cholesterol: 74 mg/dL and 73 mg/dL and 69 mg/dL and 72 mg/dL and 75 mg/dL
[1]; [7]
  HDL, Average: 53 mg/dL
  LDL, Average: 58.2 mg/dL
  Total cholesterol, Average: 71 mg/dL
  HDL: 58 mg/dL and 60 mg/dL and 49 mg/dL and 46 mg/dL and 52 mg/dL
  LDL: 69 mg/dL and 51 mg/dL and 48 mg/dL and 60 mg/dL and 63 mg/dL
  Total cholesterol: 73 mg/dL and 71 mg/dL and 75 mg/dL and 69 mg/dL and 67 mg/dL
[1]; [8]
  HDL, Average: 31.8 mg/dL
  LDL, Average: 60.4 mg/dL
  Total cholesterol, Average: 79.6 mg/dL
  HDL: 28 mg/dL and 37 mg/dL (2×) and 30 mg/dL and 27 mg/dL
  LDL: 67 mg/dL and 59 mg/dL and 54 mg/dL and 60 mg/dL and 62 mg/dL
  Total cholesterol: 75 mg/dL and 82 mg/dL and 84 mg/dL and 80 mg/dL and 77 mg/dL
[1]; [9]
  HDL, Average: 39 mg/dL
  LDL, Average: 29 mg/dL
  Total cholesterol, Average: 72.6 mg/dL
  HDL: 36 mg/dL and 40 mg/dL and 43 mg/dL and 39 mg/dL and 37 mg/dL
  LDL: 28 mg/dL and 29 mg/dL and 33 mg/dL and 30 mg/dL and 25 mg/dL
  Total cholesterol: 69 mg/dL and 74 mg/dL and 72 mg/dL and 75 mg/dL and 73 mg/dL
[1]; 1.0% KHCA
  total cholesterol reduction (lowering) in comparison to the starting condition: 2.06 mg·dL
[1]; 2.0% (4.12 mg) KHCA daily, control group decreased
  change of HDL concentration in blood serum: increased
[1]; 2.0% KHCA (4.12 mg daily)
  total cholesterol reduction (lowering) in comparison to the starting condition: 12.2 mg·dL
[1]; [10]
  HDL, Average: 63.4 mg/dL
  LDL, Average: 50 mg/dL
  Total cholesterol, Average: 61.2 mg/dL
  HDL: 64 mg/dL and 61 mg/dL and 67 mg/dL and 59 mg/dL and 66 mg/dL
  LDL: 61 mg/dL and 46 mg/dL and 50 mg/dL and 44 mg/dL and 49 mg/dL
  Total cholesterol: 59 mg/dL and 66 mg/dL and 52 mg/dL and 58 mg/dL and 71 mg/dL
[1]; [11]
  HDL, Average: 34.6 mg/dL
  LDL, Average: 63.2 mg/dL
  Total cholesterol, Average: 82 mg/dL
  HDL: 31 mg/dL and 37 mg/dL and 40 mg/dL and 33 mg/dL and 32 mg/dL
  LDL: 69 mg/dL and 61 mg/dL and 59 mg/dL and 60 mg/dL and 67 mg/dL
  Total cholesterol: 83 mg/dL and 85 mg/dL and 81 mg/dL and 79 mg/dL and 82 mg/dL
[1]; [12]
  HDL, Average: 38.8 mg/dL
  LDL, Average: 29.8 mg/dL
  Total cholesterol, Average: 73.4 mg/dL
  HDL: 38 mg/dL and 40 mg/dL and 41 mg/dL and 36 mg/dL and 39 mg/dL
  LDL: 31 mg/dL and 29 mg/dL and 26 mg/dL and 33 mg/dL and 30 mg/dL
  Total cholesterol: 75 mg/dL and 70 mg/dL and 72 mg/dL and 73 mg/dL and 77 mg/dL
[1]; [13]
  HDL level, after treatment: 63 mg/dL
  serum cholesterol LDL level, after treatment: 50 mg·dL
[1]; [14]
  HDL level, before treatment: 35 mg/dL
  serum cholesterol LDL level, before treatment: 63 mg/dL
[1]; [15]
  LDL/HDL Ratio: 2.04
  Total Cholesterol/HDL: 2.61
[1]; [16]
  LDL/HDL Ratio: 0.74
  Total Cholesterol/HDL: 1.86
[1]; [17]
  LDL/HDL Ratio: 1.31
  Total Cholesterol/HDL: 1.61
[1]; [18]
  LDL/HDL Ratio: 1.9
  Total Cholesterol/HDL: 2.50
[1]; [19]
  LDL/HDL Ratio: 0.74
  Total Cholesterol/HDL: 1.86
[1]; [20]
  LDL/HDL Ratio: 1.1
  Total Cholesterol/HDL: 1.34
[1]; [21]
  LDL/HDL Ratio: 1.83
  Total Cholesterol/HDL: 2.36
[1]; [22]
  LDL/HDL Ratio: 0.77
  Total Cholesterol/HDL: 1.89
[1]; [23]
  LDL/HDL Ratio: 0.79
  Total Cholesterol/HDL: 0.97
rats
  benefits with regard to insulin metabolism and blood pressure regulation: significant results
[2]; 0.5% KHCA (1.03 mg/day oral), At Hypercholesterolemia, before treatment
  Body weight: 202.4 grams
[2]; 0.5% KHCA (1.03 mg/day oral), End of Experiment, after 2 weeks treatment
  Body weight: 199.5 grams
[2]; 0.5% KHCA (1.03 mg/day oral), Start of Experiment, before cholesterol diet and treatment
  Body weight: 162.8 grams
[2]; 1.0% KHCA (2.06 mg/day oral), At Hypercholesterolemia, before treatment
  Body weight: 195.0 grams
[2]; 1.0% KHCA (2.06 mg/day oral), End of Experiment, after 2 weeks treatment
  Body weight: 193.2 grams
[2]; 1.0% KHCA (2.06 mg/day oral), Start of Experiment, before cholesterol diet and treatment
  Body weight: 157.7 grams
[2]; 2.0% KHCA (4.12 mg/day oral), At Hypercholesterolemia, before treatment
  Body weight: 192.7 grams
[2]; 2.0% KHCA (4.12 mg/day oral), End of Experiment, after 2 weeks treatment
  Body weight: 183.7 grams
[2]; 2.0% KHCA (4.12 mg/day oral), Start of Experiment, before cholesterol diet and treatment
  Body weight: 166.9 grams
[2]; [13]
  effect on body weight: reduced body weight
[2]; [24]
  feces consistency: softer
  feed consumption: lower feed consumption

## Magnesium HCA
[3]
  increase in HDL: 8.5%

## O=C([O-])CC(O)(C(=O)[O-])C(O)C(=O)[O-].[K+].[Mg+2] (centres unmarked) [potassium-magnesium HCA, Potassium-Magnesium Hydroxycitrate Salt]
rats
  benefits with regard to insulin metabolism and blood pressure regulation: significant results
